Data reported in ChEMBL document CHEMBL1201862, “PubChem BioAssay data set” (2004).
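These data come from cells grown in 96-well plates and exposed to compound for 48 hours at five concentrations. At the GI50, growth is halved.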 Calls of active or inactive are those of the source. No stated cut-off is given here; in the data, active = GI50 up to about 1.1 µM and inactive = higher.

Experiments:
Assay in all cases: DTP human tumour cell line panel, 48 h
[1] = system: BT-549
[2] = system: DMS-114
[3] = system: DMS-273
[4] = system: HOP-18
[5] = system: LXFL 529
[6] = system: M19-MEL
[7] = system: SNB-78
[8] = system: RXF 631
[9] = system: XF498

| SMILES | GI50 [1] | GI50 [2] | GI50 [3] | GI50 [4] | GI50 [5] | GI50 [6] | GI50 [7] | other results |
| --- | --- | --- | --- | --- | --- | --- | --- | --- |
| CCOC(=O)n1c2ccccc2c2c(O)c(OC)c3c(c21)C(=O)NC3=O | > 100 µM (inactive) |  |  |  |  |  |  |  |
| O=S1(=O)OCCOS(=O)(=O)C1Cl |  | > 100 µM (inactive) | > 100 µM (inactive) | > 100 µM (inactive) | > 100 µM (inactive) | > 100 µM (inactive) | > 100 µM (inactive) |  |
| Cc1cccc(CC(Cc2c(C)cccc2C(=O)O)C(=O)O)c1 (configuration not stated) | > 100 µM (inactive) |  |  |  |  |  |  |  |
| COc1cc2nc(-c3cccs3)[nH]c(=O)c2cc1OC | > 100 µM (inactive) |  |  |  |  |  |  |  |
| COc1cc([N+](=O)[O-])ccc1NC(=O)C(F)(F)F | > 100 µM (inactive) |  |  |  |  |  |  |  |
| COc1ccc(/C=N/NC(=O)c2ccccc2Nc2ccccc2C(=O)N/N=C/c2ccc(OC)cc2)cc1 | > 100 µM (inactive) |  |  |  |  |  |  |  |
| COc1ccc(-c2c(C#N)c(-c3ccc(C)cc3)n(NS(=O)(=O)c3ccc(C)cc3)c(=O)c2C#N)cc1 | 33.9 µM (inactive) |  |  |  |  |  |  |  |
| NC1=NS(=O)(=O)Nc2nc(-c3ccc([N+](=O)[O-])o3)[nH]c21 |  | 14.2 µM (inactive) | 21.4 µM (inactive) | 16.3 µM (inactive) | 12.7 µM (inactive) | 16.6 µM (inactive) |  |  |
| NNC(=O)N/N=C(/CC1(O)C(=O)Nc2ccc(Br)cc21)c1ccccc1 (configuration not stated) |  |  | 28.4 µM (inactive) |  | 23.4 µM (inactive) | 32.4 µM (inactive) | 34.5 µM (inactive) | GI50 [8]: 38.6 µM (inactive); GI50 [9]: 18.9 µM (inactive) |
| COc1c(Cl)nc2ccccc2c1N=[N+]=[N-] | 19.8 µM (inactive) |  |  |  |  |  |  |  |
| COc1ccc(CCCNC(=O)Cc2ccccc2CO)cc1OC | > 100 µM (inactive) |  |  |  |  |  |  |  |
| O=c1cc(-c2ccccc2)oc2cc(OCCCOc3ccc4c(=O)cc(-c5ccccc5)oc4c3)ccc12 |  | > 100 µM (inactive) | > 100 µM (inactive) | > 100 µM (inactive) | > 100 µM (inactive) | > 100 µM (inactive) | > 100 µM (inactive) | GI50 [9]: > 100 µM (inactive) |
| CC(C)(C)c1cc(S(=O)(=O)O)c2oc(-c3ccccc3)cc(=O)c2c1 | > 100 µM (inactive) |  |  |  |  |  |  |  |
| CC[C@@]1(O)C[C@H](OC2CC(N(C)C)C(O)C(C)O2)c2c(O)c3c(c(O)c2[C@H]1OC1CC(N(C)C)C(O)C(C)O1)C(=O)c1cccc(O)c1C3=O (some centres not stated) | 0.041 µM (active) |  |  |  |  |  |  |  |
| COc1cc([N+](=O)[O-])c(S(=O)(=O)O)cc1N | > 100 µM (inactive) |  |  |  |  |  |  |  |
| CC(=O)/C=C\C(=O)NNS(=O)(=O)c1ccc(C)cc1 |  |  | > 100 µM (inactive) |  | > 100 µM (inactive) | > 100 µM (inactive) | > 100 µM (inactive) | GI50 [8]: > 100 µM (inactive); GI50 [9]: > 100 µM (inactive) |
| Cc1cn(C2CC(O)C(COC(=O)NCCC(F)(F)C(F)(F)C(F)(F)C(F)(F)F)O2)c(=O)[nH]c1=O (configuration not stated) | > 100 µM (inactive) |  |  |  |  |  |  |  |
| Cc1nc(-c2cccnc2)sc1C(=O)/C=C/c1cccc([N+](=O)[O-])c1 |  | > 100 µM (inactive) | > 100 µM (inactive) | > 100 µM (inactive) |  | > 100 µM (inactive) |  | GI50 [8]: > 100 µM (inactive) |
| C=C1C(OC(C)=O)CC(OC(C)=O)C2(C)C(OC(C)=O)C(OC(C)=O)C3=C(C)C(OC(=O)/C=C/c4ccccc4)CC(C(OC(C)=O)C12)C3(C)C (configuration not stated) |  | > 100 µM (inactive) | > 100 µM (inactive) | 51.1 µM (inactive) | 51.9 µM (inactive) | > 100 µM (inactive) | 38.8 µM (inactive) | GI50 [8]: 51.2 µM (inactive) |
| NS(=O)(=O)c1ccc(NC2(C(=O)O)CCCC2)cc1 | > 100 µM (inactive) |  |  |  |  |  |  |  |
| O=C1CCCN1C(=O)CS(=O)(=O)c1ccccc1 | > 100 µM (inactive) |  |  |  |  |  |  |  |
| CC(=O)OCC1OC(O[C@@H]2C[C@H]3C(C)(C)[C@@H](OC(C)=O)CC[C@]3(C)[C@H]3CC[C@]45C[C@]4(CC[C@H]5[C@@H](C)C[C@@H](O)[C@H](O)C(C)(C)F)[C@@]32C)C(O)C(O)C1O (some centres not stated) | 1.72 µM (inactive) |  |  |  |  |  |  |  |
| CCC/C(=N\NC(=O)c1cc2ccccc2cc1O)C(CC)C(=O)CCC(=O)N(Cc1ccccc1)Cc1ccccc1 (configuration not stated) |  | 26.3 µM (inactive) | 18.2 µM (inactive) | 11 µM (inactive) | 29.6 µM (inactive) | 18.7 µM (inactive) | > 100 µM (inactive) | GI50 [8]: 38.1 µM (inactive) |
| Cc1nccn1S(=O)(=O)c1ccc(Cl)cc1 | 74.5 µM (inactive) |  |  |  |  |  |  |  |
| Nc1ccc(S(=O)(=O)c2ccc(NC(=O)c3cccnc3)cc2)cc1 | 92 µM (inactive) |  |  |  |  |  |  |  |
| C1=CC=C2NCCSCC/N=C3/C=CC=CC=C3NCCSCC/N=C\2C=C1 |  | > 100 µM (inactive) | > 100 µM (inactive) | > 100 µM (inactive) | > 100 µM (inactive) | > 100 µM (inactive) | > 100 µM (inactive) |  |
| CN(C)CC1(C)CC/C(=C\c2ccc(Cl)cc2)C1=O (configuration not stated) |  | 22.6 µM (inactive) | 20.7 µM (inactive) | 46 µM (inactive) | 21.1 µM (inactive) | 50.8 µM (inactive) | 40.8 µM (inactive) | GI50 [9]: 78.9 µM (inactive) |
| CCCCSCc1nc2nc(Cl)c(Cl)nc2[nH]1 | 27.1 µM (inactive) |  |  |  |  |  |  |  |
| COc1cc(OC)c([C@@H]2OC(=O)C3C2C(=O)O[C@H]3c2cc(OC)c(OC)cc2OC)cc1OC (some centres not stated) |  | 72.4 µM (inactive) | > 100 µM (inactive) | > 100 µM (inactive) | > 100 µM (inactive) | 70.1 µM (inactive) | > 100 µM (inactive) | GI50 [9]: > 100 µM (inactive) |
